Like-named read-outs stand apart in the source and are kept apart here.
Columns and labels:
BPTF bromodomain = target: T1, BPTF bromodomain (Homo sapiens, UniProt Q12830); test: AlphaScreen assay with BPTF bromodomain and biotinylated histone H4 KAc5,8,12,16 peptide; assay type: binding; details: average of two technical replicates with N = 3 unless otherwise indicated, read-out: BPTF BD IC50
T1 construct: His9-tagged BPTF bromodomain was expressed and purified as described previously; His9; made in house
Description: General procedure for AlphaScreen assay. His9-tagged BPTF bromodomain was expressed and purified as described previously. […] The AlphaScreen assay procedures were adapted from the manufacturers protocol (PerkinElmer, USA). […] The biotinylated Histone H4 KAc5,8,12,16 peptide was purchased from EpiCypher (Cat. #12-0034), with the sequence:
Ac-SGRGK(Ac)GGK(Ac)GLGK(Ac)GGAK(Ac)RHRKVLR-Peg(Biot).
All reagents were diluted in the assay buffer (50 mM HEPES-Na^+ (ChemImpex), 100 mM NaCl (SigmaAldrich), 0.05% CHAPS (RPI), 0.1% BSA (SigmaAldrich), pH 7.4).
3-fold serial dilutions were prepared with varying concentrations of the compounds and a fixed protein concentration, keeping the final DMSO concentration at 0.25%. […] 5 μL of the biotinylated peptide solution was then added to the wells. 10 μL of pre-mixed nickel chelate acceptor beads and streptavidin donor beads were added to each well under low light conditions (<100 lux), to a final concentration of 20 μg/mL. The plate was sealed and incubated for 30 minutes in the dark. It was then read in AlphaScreen mode (excitation time=100 ms, integration time=300 ms, output: counts/s) using a Tecan Spark plate reader. Each compound was run in two technical replicates and the data was normalized against 0 μM inhibitor signal to obtain the % normalized AlphaScreen signal. IC50 values were calculated in GraphPad Prism 9 using a sigmoidal 4-parameter logistic (4PL) curve fit.
To validate our chosen exit vectors, an AlphaScreen assay was used to measure binding affinity of our degraders with the BPTF bromodomain.

BRD9 bromodomain = target: T2, BRD9 bromodomain (Homo sapiens, UniProt Q9H8M2); test: AlphaScreen assay with BRD9 bromodomain and biotinylated histone H4 KAc5,8,12,16 peptide; assay type: binding
T2 construct: His; purchased Reaction Biology RD-11-214
T2 sequence (Q9H8M2 136-240 limits assumed): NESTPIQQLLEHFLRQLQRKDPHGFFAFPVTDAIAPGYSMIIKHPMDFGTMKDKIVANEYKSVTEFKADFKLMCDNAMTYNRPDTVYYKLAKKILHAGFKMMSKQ

CECR2 bromodomain = target: T3, CECR2 bromodomain (Homo sapiens, UniProt Q9BXF3); test: AlphaScreen assay with CECR2 bromodomain and biotinylated histone H4 KAc5,8,12,16 peptide; assay type: binding
T3 construct: His; purchased Reaction Biology RD-11-210

[1] = target: T4, GST-CECR2 and His-tagged CRBN-DDB1 (Homo sapiens, UniProt Q96SW2+Q9BXF3); test: In vitro AlphaScreen ternary complex assay, CECR2; assay type: binding; details: GST-CECR2, His-CRBN-DDB1, varying degrader concentrations
T4 construct: GST-tagged bromodomains (BPTF, BRD9, CECR2 and PCAF) and His-tagged CRBN; purchased Reactive Biology Corp RD-11-194
Description: (§1) General procedure for in vitro ternary complex assay. His-tagged CRBN-DDB1 protein was prepared following the procedure reported by Matyskiela et al. GST-BPTF was purchased from BPS Biosciences (cat #31134), while GST-BRD9, GST-CECR2, and GST-PCAF were purchased from Reactive Biology Corp (cat #RD-11-187, cat #RD-11-194, and cat #RD-11-259 respectively). All reagents were diluted in assay buffer comprising 25 mM HEPES, pH 7.4, 100 mM NaCl, 0.1% BSA, and 0.05% tween20. An ECHO 650 (Labcyte Inc.) acoustic dispenser was used to generate a 10-point dilution curve from DMSO stocks of the degraders directly into a 384-well OptiPlate (PerkinElmer, Cat. #6007290) giving a final DMSO concentration of 0.3%. AlphaScreen glutathione coated donor and nickel chelate acceptor beads were purchased from PerkinElmer (Cat. #6765300 and 6760141 respectively).
(§2) Briefly, to a 384-well OptiPlate containing 5× degrader in triplicate was added 5 μL of a 5× solution of His-CRBN-DDB1 and GST-tagged bromodomain and then incubated at rt for 1 h. After incubation, 10 μL nickel chelate acceptor (20 μL/mL final concentration) and 10 μL glutathione donor beads (20 μL/mL final concentration) were added. The plate was sealed and mixed on a MixMate (eppendorf) for 1 h at rt and then luminescence detection was collected on an Envision plate reader (PerkinElmer).
(§3) In vitro ternary complex formation via AlphaScreen. The stability of the ternary complex is critical for degradation by heterobifunctional molecules. A ternary complex formation in vitro using an AlphaScreen-based assay (FIG. 3A) was therefore studied. In this experiment, anti-GST donor beads and nickel acceptor beads were paired with GST-tagged bromodomains (BPTF, BRD9, CECR2 and PCAF) and His-tagged CRBN. The AlphaScreen signal was measured at varying degrader concentrations and the amplitude of the maximum point on the curve was used as an indicator of ternary complex stability.

[2] = target: T5, GST-PCAF and His-tagged CRBN-DDB1 (Homo sapiens, UniProt Q92831+Q96SW2); test: In vitro AlphaScreen ternary complex assay, PCAF; assay type: binding; details: His-CRBN-DDB1, varying degrader concentrations
T5 construct: GST-tagged bromodomains (BPTF, BRD9, CECR2 and PCAF) and His-tagged CRBN; purchased Reactive Biology Corp RD-11-259
Description: as §1, §2, §3

[3] = target: T6, Nluc-BPTF-BD fusion construct (Homo sapiens, UniProt Q12830+Q96SW2); test: In-cell NanoBRET CRBN ternary complex assay with Nluc-BPTF-BD; assay type: cell-based; details: for BRET ratio, fold increase over DMSO (in-cell ternary complex formation): 1 μM degrader, C-terminal Nluc-BPTF-BD fusion, HEK293T cells; for Ternary complex formation with C-terminal Nluc/BPTF-BD fusion construct / Ternary complex formation with N-terminal Nluc/BPTF-BD fusion construct: 1 μM for 2 h, HEK293T cells pre-treated with MG-132
T6 construct: form ternary complexes with nanoluciferase-fused BPTF bromodomain and full-length BRD9 constructs; expressed in transfected cells; host or cells: HEK293T
Description: In-cell NanoBRET assay. NanoBRET experiments were carried out using the NanoBRET CRBN Ternary Complex Starter Kit (Cat #ND2720) according to the manufacturer's protocol (Promega NanoBRET™ CRBN Ternary Complex Assay TM615).^38 All assays were run in 384-well format. HEK293T cells were transfected to a 1:100 donor:acceptor (Nluc:Halotag vectors) ratio for both BPTF-BD and BRD9-FL vectors (see supporting information for the design of plasmids). Cells were re-plated, treated with the HaloTag 618 Ligand and treated with compounds as described in the manufacturer's procedure.
Cell culture. HEK293T cells were grown in a humidified 5% CO2 environment at 37° C. Cells were cultured in DMEM media (high-glucose, Gibco Cat. #11965-092) supplemented with 10% fetal-bovine serum (Cellgro Cat. #QB-110-001-101), Penicillin-Streptomycin (50 U/mL penicillin, 50 μg/mL streptomycin, Cellgro Cat. #15140-122). The cells were passaged to a 1:20 dilution by decanting suspended cells and dissociating adherent cells from cell culture flasks in 0.25% trypsin/EDTA (Gibco, Cat. #25200056) after 1 min incubation.
In-cell ternary complex formation and degradation of BPTF-BD via NanoBRET. After establishing in vitro ternary complex formation, a NanoBRET ternary complex assay was optimized to rank-order degraders in cells (FIG. 4A). This assay also serves as an indirect indicator of cellular permeability, which is often a major challenge for heterobifunctional degraders. Both N- and C-terminal fusions of Nanoluciferase (Nluc) and BPTF-BD with 11-amino acid linkers were designed. The vectors were transfected into HEK293T cells and compounds 4 and 5 were dosed at 1 μM for 2 h in cells pre-treated with the proteosome inhibitor MG-132. […] The C-terminal Nluc-BPTF-BD fusion construct was therefore used for subsequent experiments. Degraders were tested for ternary complex formation at 1 μM (FIG. 4B).

[4] = target: T7, GST-BRD9 and His-tagged CRBN-DDB1 (Homo sapiens, UniProt Q96SW2+Q9H8M2); test: In vitro AlphaScreen ternary complex assay, BRD9; assay type: binding; details: GST-BRD9, His-CRBN-DDB1, varying degrader concentrations
T7 construct: GST-tagged bromodomains (BPTF, BRD9, CECR2 and PCAF) and His-tagged CRBN; purchased Reactive Biology Corp RD-11-187
Description: as §1, with “AlphaScreen glutathione coated donor and nickel chelate acceptor beads were purchased from PerkinElmer (Cat. #6765300 and 6760141 respectively).” left out
as §2, with “After incubation, 10 μL nickel chelate acceptor (20 μL/mL final concentration) and 10 μL glutathione donor beads (20 μL/mL final concentration) were added.” left out
In vitro ternary complex formation via AlphaScreen. […] The AlphaScreen signal was measured at varying degrader concentrations and the amplitude of the maximum point on the curve was used as an indicator of ternary complex stability.

[5] = target: T8, Nluc-BRD9-FL fusion construct (Homo sapiens, UniProt Q96SW2+Q9H8M2); test: Degradation of Nluc-BRD9-FL construct by total donor luminescence; details: similar conditions as BPTF study (1 μM, 6 h), HEK293T cells
Description: (§4) In-cell ternary complex formation and degradation of full-length BRD9 via NanoBRET. […] Degradation of the Nluc-BRD9-FL construct was monitored under similar conditions as our BPTF study.

[6] = target: T8, Nluc-BRD9-FL fusion construct; test: In-cell NanoBRET CRBN ternary complex assay with full-length BRD9; details: HEK293T cells
Description: as §4

[7] = AlphaScreen, average of two technical replicates with N = 2 unless otherwise indicated, read-out: BRD9 BD IC50
[8] = AlphaScreen, average of two technical replicates with N = 2 unless otherwise indicated, read-out: CECR2 BD IC50

T8 sequence (Q9H8M2 whole entry, the tested form may be a part): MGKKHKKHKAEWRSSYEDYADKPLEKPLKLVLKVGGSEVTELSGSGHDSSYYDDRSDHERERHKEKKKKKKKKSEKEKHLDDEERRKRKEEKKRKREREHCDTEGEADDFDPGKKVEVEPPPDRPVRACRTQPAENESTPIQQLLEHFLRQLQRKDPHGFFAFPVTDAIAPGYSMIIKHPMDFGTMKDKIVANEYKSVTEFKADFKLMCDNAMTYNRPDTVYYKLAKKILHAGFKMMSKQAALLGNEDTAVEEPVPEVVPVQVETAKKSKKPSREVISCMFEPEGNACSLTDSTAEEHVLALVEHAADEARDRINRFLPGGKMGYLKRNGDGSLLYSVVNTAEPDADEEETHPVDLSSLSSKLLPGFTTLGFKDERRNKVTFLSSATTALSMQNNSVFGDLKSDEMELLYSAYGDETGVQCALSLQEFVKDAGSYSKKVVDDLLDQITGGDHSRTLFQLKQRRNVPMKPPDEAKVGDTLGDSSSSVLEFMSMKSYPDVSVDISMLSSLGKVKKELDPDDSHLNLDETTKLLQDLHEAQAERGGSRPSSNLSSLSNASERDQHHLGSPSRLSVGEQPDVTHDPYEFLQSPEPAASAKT
T8 sequence (Q96SW2 whole entry, the tested form may be a part): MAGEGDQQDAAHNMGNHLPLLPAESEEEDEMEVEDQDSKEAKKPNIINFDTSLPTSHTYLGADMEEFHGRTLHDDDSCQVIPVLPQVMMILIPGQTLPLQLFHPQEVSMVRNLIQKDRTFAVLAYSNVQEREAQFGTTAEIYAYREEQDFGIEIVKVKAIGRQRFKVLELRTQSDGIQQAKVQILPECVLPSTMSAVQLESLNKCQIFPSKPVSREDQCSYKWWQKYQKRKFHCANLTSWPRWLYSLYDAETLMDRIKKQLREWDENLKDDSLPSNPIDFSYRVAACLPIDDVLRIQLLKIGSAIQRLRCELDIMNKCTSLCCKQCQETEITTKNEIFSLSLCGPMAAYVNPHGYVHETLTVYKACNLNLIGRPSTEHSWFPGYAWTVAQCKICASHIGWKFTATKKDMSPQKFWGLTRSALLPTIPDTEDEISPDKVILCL
T8 sequence (Q16531 whole entry partner, the tested form may be a part): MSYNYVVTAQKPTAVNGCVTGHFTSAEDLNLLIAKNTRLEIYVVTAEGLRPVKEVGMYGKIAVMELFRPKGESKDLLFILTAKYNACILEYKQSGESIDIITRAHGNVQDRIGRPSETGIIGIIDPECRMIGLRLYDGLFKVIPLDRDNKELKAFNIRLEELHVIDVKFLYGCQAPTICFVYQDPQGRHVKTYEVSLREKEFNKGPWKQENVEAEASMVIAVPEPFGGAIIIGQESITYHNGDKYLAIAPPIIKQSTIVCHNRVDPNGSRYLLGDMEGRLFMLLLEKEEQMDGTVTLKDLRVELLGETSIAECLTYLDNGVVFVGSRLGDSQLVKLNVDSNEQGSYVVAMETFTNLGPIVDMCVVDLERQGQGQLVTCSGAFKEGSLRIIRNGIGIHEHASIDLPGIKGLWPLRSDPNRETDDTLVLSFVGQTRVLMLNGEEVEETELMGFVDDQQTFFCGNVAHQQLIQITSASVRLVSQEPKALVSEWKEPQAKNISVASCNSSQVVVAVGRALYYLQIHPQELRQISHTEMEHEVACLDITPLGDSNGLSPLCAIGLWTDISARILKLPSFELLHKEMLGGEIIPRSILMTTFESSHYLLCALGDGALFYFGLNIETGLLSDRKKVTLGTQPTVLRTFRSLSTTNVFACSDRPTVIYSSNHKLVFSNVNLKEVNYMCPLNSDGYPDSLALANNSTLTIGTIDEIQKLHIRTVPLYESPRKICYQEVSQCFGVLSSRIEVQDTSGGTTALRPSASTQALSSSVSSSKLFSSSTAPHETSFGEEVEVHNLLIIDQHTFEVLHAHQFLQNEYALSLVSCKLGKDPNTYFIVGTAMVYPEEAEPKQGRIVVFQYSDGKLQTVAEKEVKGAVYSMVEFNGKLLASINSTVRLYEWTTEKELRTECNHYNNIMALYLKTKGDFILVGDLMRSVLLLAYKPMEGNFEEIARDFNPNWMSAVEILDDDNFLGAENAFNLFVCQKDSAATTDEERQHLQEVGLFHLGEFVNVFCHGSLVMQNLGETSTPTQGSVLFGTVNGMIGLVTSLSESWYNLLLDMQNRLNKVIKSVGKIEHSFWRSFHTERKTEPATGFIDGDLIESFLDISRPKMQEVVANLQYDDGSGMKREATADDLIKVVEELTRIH
T6 sequence (Q16531 whole entry, the tested form may be a part): as the sequence (Q16531 whole entry partner, the tested form may be a part) above
T6 sequence (Q96SW2 whole entry, the tested form may be a part): as the sequence (Q96SW2 whole entry, the tested form may be a part) above
T4 sequence (Q9BXF3 434-538 limits assumed): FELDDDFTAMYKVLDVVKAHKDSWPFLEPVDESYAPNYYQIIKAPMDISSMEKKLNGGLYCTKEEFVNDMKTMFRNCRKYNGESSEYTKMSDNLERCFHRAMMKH
T4 sequence (Q96SW2 40-442 limits assumed): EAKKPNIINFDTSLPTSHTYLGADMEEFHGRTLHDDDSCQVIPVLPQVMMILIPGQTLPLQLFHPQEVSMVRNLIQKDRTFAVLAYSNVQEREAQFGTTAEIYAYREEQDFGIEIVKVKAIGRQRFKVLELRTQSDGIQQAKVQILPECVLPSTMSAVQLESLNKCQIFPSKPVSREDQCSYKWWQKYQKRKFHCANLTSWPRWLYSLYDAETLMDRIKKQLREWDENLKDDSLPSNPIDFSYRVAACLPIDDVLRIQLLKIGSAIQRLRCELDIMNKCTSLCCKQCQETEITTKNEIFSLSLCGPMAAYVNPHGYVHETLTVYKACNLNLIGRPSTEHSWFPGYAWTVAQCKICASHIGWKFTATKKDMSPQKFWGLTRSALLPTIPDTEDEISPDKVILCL
T4 sequence (Q16531 whole entry partner): as the sequence (Q16531 whole entry partner, the tested form may be a part) above
T3 sequence (Q9BXF3 434-538 limits assumed): as the sequence (Q9BXF3 434-538 limits assumed) above
T5 sequence (Q92831 723-827 limits assumed): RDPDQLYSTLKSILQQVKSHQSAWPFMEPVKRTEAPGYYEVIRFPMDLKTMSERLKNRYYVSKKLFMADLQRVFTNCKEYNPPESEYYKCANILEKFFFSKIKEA
T5 sequence (Q96SW2 40-442 limits assumed): as the sequence (Q96SW2 40-442 limits assumed) above
T5 sequence (Q16531 whole entry partner): as the sequence (Q16531 whole entry partner, the tested form may be a part) above
T7 sequence (Q96SW2 40-442 limits assumed, one chain of several): as the sequence (Q96SW2 40-442 limits assumed) above
T7 sequence (Q16531 whole entry partner, one chain of several): as the sequence (Q16531 whole entry partner, the tested form may be a part) above

IC50 (BPTF bromodomain) | IC50 (BRD9 bromodomain; [7]) | IC50 (CECR2 bromodomain; [8]) | Ternary complex formation with CECR2 (AlphaScreen signal amplitude) [1] | Ternary complex formation with PCAF (AlphaScreen signal amplitude) [2] | BRET ratio, fold increase over DMSO (in-cell ternary complex formation) [3] | Ternary complex formation with BRD9 (AlphaScreen signal amplitude) [4] | Ternary complex formation with C-terminal Nluc/BPTF-BD fusion construct [3] | Ternary complex formation with N-terminal Nluc/BPTF-BD fusion construct [3] | BRET ratio, fold over DMSO control (in-cell ternary complex formation) [6] | SMILES | IC50 (BRD9 bromodomain) | IC50 (CECR2 bromodomain) | Degradation of the Nluc-BRD9-FL construct [5]
121 ± 38 nM | 18 nM | 1460 nM | less stable ternary complexes | less stable ternary complexes | 1.6 fold | – | – | – | – | Cn1ncc(Nc2ccc3c(c2)CN(CCOCCOCCNC(=O)COc2cccc4c2C(=O)N(C2CCC(=O)NC2=O)C4=O)CC3)c(Cl)c1=O (stereo not drawn) [Compound 6, N-(2-(2-(2-(7-((5-chloro-1-methyl-6-oxo-1,6-dihydropyridazin-4-yl)amino)-3,4-dihydroisoquinolin-2(1H)-yl)ethoxy)ethoxy)ethyl)-2-((2-(2,6-dioxopiperidin-3-yl)-1,3-dioxoisoindolin-4-yl)oxy)acetamide] | – | – | –
70 ± 23 nM | 63 nM | 225 nM | less stable ternary complexes | less stable ternary complexes | 2.3 fold | – | showed ternary complex formation | did not | – | Cn1ncc(Nc2ccc3c(c2)CCN(CCOCCOCCNC(=O)COc2cccc4c2C(=O)N(C2CCC(=O)NC2=O)C4=O)C3)c(Cl)c1=O (stereo not drawn) [Compound 5, N-(2-(2-(2-(6-((5-chloro-1-methyl-6-oxo-1,6-dihydropyridazin-4-yl)amino)-3,4-dihydroisoquinolin-2(1H)-yl)ethoxy)ethoxy)ethyl)-2-((2-(2,6-dioxopiperidin-3-yl)-1,3-dioxoisoindolin-4-yl)oxy)acetamide] | – | – | caused degradation of full-length BRD9, comparable to the dBRD9 control
430 nM | – | 33 nM | – | – | – | – | – | – | – | CN(C)CCCOc1ccc(-c2cc(NCCCn3cccn3)nc(S(C)(=O)=O)n2)cc1 [Compound 7, TP-238, reference compound] | – | – | –

Further lines, the compound ahead of its results:

SMILES | IC50 (BPTF bromodomain) | IC50 (BRD9 bromodomain; [7]) | IC50 (CECR2 bromodomain; [8]) | Ternary complex formation with CECR2 (AlphaScreen signal amplitude) [1] | Ternary complex formation with PCAF (AlphaScreen signal amplitude) [2] | BRET ratio, fold increase over DMSO (in-cell ternary complex formation) [3] | Ternary complex formation with BRD9 (AlphaScreen signal amplitude) [4] | Ternary complex formation with C-terminal Nluc/BPTF-BD fusion construct [3] | Ternary complex formation with N-terminal Nluc/BPTF-BD fusion construct [3] | BRET ratio, fold over DMSO control (in-cell ternary complex formation) [6] | IC50 (BRD9 bromodomain) | IC50 (CECR2 bromodomain) | Degradation of the Nluc-BRD9-FL construct [5]
Cn1ncc(Nc2ccc3c(c2)CCN(CCCCCCNC(=O)COc2cccc4c2C(=O)N(C2CCC(=O)NC2=O)C4=O)C3)c(Cl)c1=O (stereo not drawn) [Compound 3] | 24 ± 9 nM | 21 nM | 53 nM | drop in signal | drop in signal | 3.5 fold | drop in signal | – | – | – | – | – | –
Cn1ncc(Nc2ccc3c(c2)CCNC3)c(Cl)c1=O [Compound 1] | – | – | – | – | – | – | – | – | – | – | 556 nM | 1670 nM | –
Cn1ncc(Nc2ccc3c(c2)CN(CCCCCCNC(=O)COc2cccc4c2C(=O)N(C2CCC(=O)NC2=O)C4=O)CC3)c(Cl)c1=O (stereo not drawn) [Compound 4, N-(6-(7-((5-chloro-1-methyl-6-oxo-1,6-dihydropyridazin-4-yl)amino)-3,4-dihydroisoquinolin-2(1H)-yl)hexyl)-2-((2-(2,6-dioxopiperidin-3-yl)-1,3-dioxoisoindolin-4-yl)oxy)acetamide] | 158 ± 55 nM | 98 nM | 485 nM | promiscuous | promiscuous | 3.2 fold | promiscuous | showed ternary complex formation | did not | ~2 fold | – | – | caused degradation of full-length BRD9, comparable to the dBRD9 control
Cn1ncc(Nc2ccc3c(c2)CNCC3)c(Cl)c1=O [Compound 2] | – | 300 nM | 1300 nM | – | – | – | – | – | – | – | – | – | –

Source: patent US20230391745A1, “SMALL MOLECULE DEGRADERS OF THE BROMODOMAIN AND PHD FINGER TRANSCRIPTION FACTOR” (Regents of the University of Minnesota, priority 2022, published 2023)
